# Earlier results, collected in US20210346453A1, “COMPOSITIONS AND METHODS FOR TREATMENT OF COVID-19” (Cognitive Clarity Inc., priority 2020, published 2021).
# Experiments:
# [1] = test system: inflammation in brain (astrocytosis and microgliosis); details: plaque-producing transgenic mice, within 3 months of treatment
# [2] = test system: brain plaques and tangles; details: aging brain
# COVID-19 = details: compared to placebo
Compound,reduction of inflammation in brain (astrocytosis and microgliosis) [1],brain plaques and tangles [2],risk of being hospitalized or visiting the Emergency Room within 28 days after treatment (COVID-19)
"Oc1cc(O)c2c(c1)O[C@H](c1ccc(O)c(O)c1)[C@H](O)[C@H]2c1c(O)cc(O)c2c1O[C@H](c1ccc(O)c(O)c1)[C@H](O)C2 [Proanthocyanidin B2, epicatechin-4β-8-epicatechin]",69%-80.3%,inhibit and reduce,
Oc1ccc([C@H]2Oc3cc(O)cc(O)c3[C@H](c3c(O)cc(O)c4c3O[C@H](c3ccc(O)c(O)c3)[C@H](O)C4)[C@H]2O)cc1 [epiafzelechin-4β-8-epicatechin],,inhibit and reduce,
"Oc1cc(O)c2c(c1)O[C@H](c1ccc(O)c(O)c1)[C@@H](O)[C@@H]2c1c(O)cc(O)c2c1O[C@H](c1ccc(O)c(O)c1)[C@H](O)C2 [proanthocyanidin B4, catechin-4-α-8-epicatechin]",,inhibit and reduce,
"Oc1cc(O)c2c(c1)O[C@H](c1ccc(O)c(O)c1)[C@H](O)[C@H]2c1c(O)cc(O)c2c1O[C@H](c1ccc(O)c(O)c1)[C@H](O)[C@H]2c1c(O)cc(O)c2c1O[C@H](c1ccc(O)c(O)c1)[C@H](O)C2 [proanthocyanidin C1, epicatechin-4β-8-epicatechin-4β-8-epicatechin]",,inhibit and reduce,
Bamlanivimab: monoclonal antibody treatment made by Eli Lilly,,,significantly reduce
